Reference: publication PMC9095466 (Nature, 2022)
Several values for one entry are separate records, joined by “and”; a condition that tells them apart may be missing. Equal values may be shown once. Read-outs that look alike come from different tables or passages of the source.

Legend:
[1] = Cytotoxicity assay (Cell Titer-Glo 2.0) in Vero E6 cells; type: cell-based; conditions: African green monkey
Protocol: Calu-3 and Vero E6 cells (2500 or 10,000 cells for samples, 80–20,000 cells for standard curve) were seeded in 96-well plates. Following a 24-h incubation at 37 °C, 5% CO2, cells were washed with D-PBS and compounds added (10 µM) for an additional 24-h incubation. Cellular viability was assessed using Cell Titer-Glo 2.0 Cell Viability Assay (Promega) according to the manufacturer’s instructions. The number of viable cells was extrapolated using the standard curve. Cellular viability in Vero E6 cells was expressed relative (%) to vehicle-treated cells. Data are from four independent experiments (mean ± s.d.).

[2] = tested on: SARS-CoV-2 (USA-WA1/2020, lineage A); set-up: species or system K18-hACE2 mice; conditions: mouse, in vivo
[3] = tested on: SARS-CoV-2 B.1.1.7 (Alpha); experiment: microbe, parasite or virus in culture; type: cell-based; conditions: UK
SARS-CoV-2 (VIDO) [4] = type: cell-based; set-up: plaque assay titre, Figure 2c: unit not given beside the values; conditions: for reduction of viral titre (plaque assay): supernatant of infected Calu-3 cells, vs DMSO-treated infected control; for plaque assay titre, Figure 2c: replicate columns
[5] = tested on: SARS-CoV-2 B.1.617.2 (Delta); set-up: species or system K18-hACE2 mice; conditions: mouse, in vivo
[6] = tested on: SARS-CoV-2 B.1.617.2 (Delta); type: in vivo, K18-hACE2 mice; conditions: for PFU/g / PFU/mL: lung, plaque assay, N-0385 12h PI, individual mice
[7] = tested on: SARS-CoV-2 (USA-WA1/2020, lineage A); type: in vivo, K18-hACE2 mice
[8] = tested on: SARS-CoV-2 B.1.617.2 (Delta); experiment: K18-hACE2 mice infected with Delta VOC, IHC of nucleocapsid in lung; type: in vivo
Protocol: (§1) To detect viral antigen, sections were labelled with anti-SARS-CoV-2 nucleocapsid protein rabbit IgG monoclonal antibody (GeneTex; GTX635679) at a 1:5,000 dilution and processed using a Leica Bond Max automated IHC stainer. Leica Bond Polymer Refine Detection (Leica; DS9800) with DAB was used as the chromogen. Image acquisition was performed using a Roche Ventana DP200 slide scanner. Digital image analysis was performed using QuPath software[65],[66] v.0.2.3. Tissues were annotated to include all available lung tissue or all brain tissue excluding cerebellum, as cerebellar tissue was not available for all mice. Following annotation, automated detection was performed using automated SLIC superpixel segmentation with a DAB mean detection threshold of 0.18892.

[9] = tested on: SARS-CoV-2 (USA-WA1/2020, lineage A); experiment: K18-hACE2 mouse model of SARS-CoV-2, IHC of nucleocapsid with digital image analysis; type: in vivo, K18-hACE2 mice; conditions: for Num Positive per mm^2 (IHC) / Positive % (IHC): Lung, Figure 5 Panel G, individual animals
Protocol: as §1

[10] = tested on: SARS-CoV-2 B.1.617.2 (Delta); experiment: microbe, parasite or virus in culture; type: cell-based; conditions: India
SARS-CoV-2 VOCs = experiment: SARS-CoV-2 VOC infection of Calu-3 cells, summary over all VOCs; type: cell-based; conditions: Severe acute respiratory syndrome coronavirus 2, range over VOCs
SARS-CoV-2 P.1 (Gamma) = experiment: microbe, parasite or virus in culture; type: cell-based; conditions: Brazil
[11] = tested on: SARS-CoV-2 B.1.617.2 (Delta); experiment: K18-hACE2 mice infected with Delta VOC, lung pathology scores on IHC sections; conditions: individual mice, single dose 12 hpi, 3 DPI
Protocol: For histological examination, mouse lungs and brains were collected directly after euthanasia and placed in 10% formalin for more than 72 h, after which tissues were embedded in paraffin. Tissue sections (4 μm) were analysed after staining with H&E and scored blinded by an anatomic pathologist. For lung, scores were applied based on the percentage of each tissue type (alveolus, vessels and so on) affected using the following criteria: (0) normal; (1) less than 10% affected; (2) 10–25% affected; (3) 26–50% affected; and (4) more than 50% affected[64]. Assessment of lung pathology in K18-hACE2 mice infected with the SARS-CoV-2 B.1.617.2 (Delta) VOC after single-dose treatment was performed on IHC sections counterstained with haematoxylin. For brains, histological scoring was assessed for perivascular inflammation using the most severely affected vessel and the following criteria: (0) no perivascular inflammation; (1) incomplete cuff one cell layer thick; (2) complete cuff one cell layer thick; (3) complete cuff two to three cells thick; and (4) complete cuff four or more cells thick. Necrotic cells in the neuroparenchyma were assessed per 0.237 mm^2 field using the most severely affected area and the following criteria: (0) no necrotic cells; (1) rare individual necrotic cells; (2) fewer than 10 necrotic cells; (3) 11 to 25 necrotic cells; (4) 26 to 50 necrotic cells; and (5) greater than 50 cells.

SARS-CoV-2 (VIDO) [12] = experiment: microbe, parasite or virus in culture; type: cell-based; conditions: colonoids pretreated 3 h with 100 nM, infected 3 days, vs DMSO-treated
[13] = Figure S8 C, tissue plaque assay, Females, individual animals
[14] = Figure S8 C, tissue plaque assay, Males, individual animals
[15] = Males, Figure 5 Panel F, individual animals
[16] = females, Figure 5 Panel F, individual animals
[17] = individual mice, 8-day regimen, tissue at death or end-point

CS(=O)(=O)NC(CCC(N)=O)C(=O)NC(Cc1ccccc1)C(=O)NC(CCCNC(=N)N)C(=O)c1nc2ccccc2s1 (stereo not shown) [Compound N-0385, Ms-QFR-kbt]
viability at 24 h, 10 µM ([1]; 10 μM compound, 24 h, relative to vehicle (DMSO 0.01%), single experiments N1-N4, read-out: % Viability of Vero E6 cells): 127%
viability at 24 h, 10 µM ([1]; % Viability of Vero E6 cells): 100%
average weight loss at 6 dpi [2]: 3%
survival [2]: 100%
survival to the end-point (14 dpi) [2]: 70%
weight gain at 6 dpi [2]: 1%
weight gain at time of death or the study end-point [2]: 2%
weight loss at the study end-point [2]: 3%
infection, dose response Figure 3c (nucleocapsid) ([3]; log [C] (nM) -0.49485): 100.507 and 68.1892 and 93.9276 and 91.6566 and 100
infection, dose response Figure 3d (dsRNA) ([3]; log [C] (nM) -0.49485): 68.6997 and 68.3556 and 77.9197 and 68.9 and 100
infection, dose response Figure 3c (nucleocapsid) ([3]; log [C] (nM) -1.19382): 96.9973 and 100 and 88.1248
infection, dose response Figure 3d (dsRNA) ([3]; log [C] (nM) -1.19382): 83.4401 and 68.4372 and 71.2209 and 84.9067 and 100
reduction of viral titre (plaque assay) (SARS-CoV-2 (VIDO) [4]; 40 nM): ~2 log
plaque assay titre, Figure 2c (SARS-CoV-2 (VIDO) [4]; 40 nM): 1000 (11×) and 22000 (2×) and 33000 and 132000 and 10000 (2×) and 33333
reduction of viral titre (plaque assay) (SARS-CoV-2 (VIDO) [4]; 200 nM): ~2 log
plaque assay titre, Figure 2c (SARS-CoV-2 (VIDO) [4]; 200 nM): 1000 (8×) and 10000 (6×) and 20000 (2×) and 11111 and 40000 and 30000
weight gain (six days after infection) [5]: 2%
weight loss (six days after infection) [5]: 5%
PFU/g ([6]; Females): 30000000 PFU/g and 0 PFU/g and 275000 PFU/g and 1000 PFU/g
PFU/mL ([6]; Females): 6000000 PFU/mL and 0 PFU/mL and 55000 PFU/mL and 200 PFU/mL
PFU/g ([6]; Males): 275000 PFU/g and 32500 PFU/g and 1750 PFU/g and 0 PFU/g
PFU/mL ([6]; Males): 55000 PFU/mL and 6500 PFU/mL and 350 PFU/mL and 0 PFU/mL
reduction in lung viral titres at 3 dpi ([6]; mouse, in vivo): more than 50%
PFU/g [7, 13]: 0 PFU/g
PFU/mL [7, 13]: 0 PFU/mL
PFU/g [7, 14]: 0 PFU/g and 4852.94 PFU/g and 5882.35 PFU/g and 11764706 PFU/g
PFU/mL [7, 14]: 0 PFU/mL and 970.588 PFU/mL and 1176.47 PFU/mL and 2352941 PFU/mL
Average Plaques ([7]; Males, Figure 5 Panel F, at the Dilution Factor, individual animals): 53.25 and 0
PFU/g [7, 15]: 2662500 PFU/g and 0 PFU/g
PFU/mL [7, 15]: 532500 PFU/mL and 0 PFU/mL
Average Plaques ([7]; endpoint plaque assay (Panel H), females, individual animals): 0
PFU/g ([7]; endpoint plaque assay (Panel H), females, individual animals, tissue resuspended at 5ul/mg): 0 PFU/g
Average Plaques ([7]; endpoint plaque assay (Panel H), males, individual animals): 0
PFU/g ([7]; endpoint plaque assay (Panel H), males, individual animals, tissue resuspended at 5ul/mg): 0 PFU/g
Average Plaques ([7]; females, Figure 5 Panel F, at the Dilution Factor, individual animals): 21 and 0 and 7.75
PFU/g [7, 16]: 10500000 PFU/g and 0 PFU/g and 387500 PFU/g
PFU/mL [7, 16]: 2100000 PFU/mL and 0 PFU/mL and 77500 PFU/mL
infectious virus in the lung at the study end-point ([7]; intranasal once daily day −1 to day 2, 14 dpi): No infectious virus was detected
PFU/mL ([7]; mouse, in vivo): 0 PFU/mL
reduction of lung viral titres (plaque assay) at 3 dpi ([7]; mouse, in vivo): 97%
Num Positive events/mm^2 (nucleocapsid IHC, lung) ([8]; individual mice (f = female, m = male), single dose 12 hpi, 3 dpi, Fig. 6f, listed as n385): 2181.1 events/mm^2 and 5.047 events/mm^2 and 10.41 events/mm^2 and 9.171 events/mm^2 and 935.88 events/mm^2 and 0.9105 events/mm^2 and 3.523 events/mm^2 and 51.75 events/mm^2 and 3.842 events/mm^2 and 20.48 events/mm^2
reduction in IHC viral staining in lung at 3 dpi ([8]; single dose at 12 hpi, vs saline-treated group): more than 50%
Num Positive per mm^2 (IHC) ([9]; Females): 5.547 per mm^2 and 9.942 per mm^2 and 13.6 per mm^2 and 13.27 per mm^2 and 7.069 per mm^2
Positive % (IHC) ([9]; Females): 0.0549% and 0.0981% and 0.1335% and 0.1309% and 0.07%
Num Positive per mm^2 (IHC) ([9]; Males): 19.22 per mm^2 and 9.103 per mm^2 and 13.04 per mm^2 and 20.75 per mm^2 and 10.41 per mm^2
Positive % (IHC) ([9]; Males): 0.1899% and 0.0899% and 0.1288% and 0.204% and 0.1028%
Brain No. Positive (IHC detections) [9, 17]: 113 and 131 and 205 and 255 and 133 and 201 and 429346 and 137295 and 271623 and 125
Brain No. Positive per mm^2 [9, 17]: 2.79 per mm^2 and 3.006 per mm^2 and 3.517 per mm^2 and 4.198 per mm^2 and 3.156 per mm^2 and 4.077 per mm^2 and 7967.3 per mm^2 and 2771 per mm^2 and 5985.4 per mm^2 and 3.495 per mm^2
Brain Positive % [9, 17]: 0.0277% and 0.0298% and 0.035% and 0.0417% and 0.0314% and 0.0404% and 79.52% and 27.59% and 59.16% and 0.0347%
Lung No. Positive (IHC detections) [9, 17]: 192 and 131 and 152 and 95 and 269 and 3067 and 1648 and 28511 and 272
Lung No. Positive per mm^2 [9, 17]: 6.545 per mm^2 and 5.06 per mm^2 and 8.682 per mm^2 and 7.096 per mm^2 and 3.624 per mm^2 and 7.345 per mm^2 and 133.68 per mm^2 and 86.7 per mm^2 and 861.5 per mm^2 and 8.911 per mm^2
Lung Positive % [9, 17]: 0.065% and 0.0502% and 0.0856% and 0.0701% and 0.0366% and 0.0726% and 1.322% and 0.8535% and 8.502% and 0.088%
reduction of IHC staining (nucleocapsid) in lung at 3 dpi ([9]; intranasal once daily day −1 to day 2, vs saline-treated mice): 98%
infection, dose response Figure 3c (nucleocapsid) ([10]; log [C] (nM) 0.20412): 60.9172 and 87.9076 and 85.6813 and 84.0612
infection, dose response Figure 3d (dsRNA) ([10]; log [C] (nM) 0.20412): 68.4547 and 86.2131 and 100
infection, dose response Figure 3d (dsRNA) ([10]; log [C] (nM) 3): 5.293 and 4.1962
infection, dose response Figure 3c (nucleocapsid) ([10]; log [C] (nM) -0.49485): 94.4352 and 99.5627 and 82.7139
infection, dose response Figure 3d (dsRNA) ([10]; log [C] (nM) -0.49485): 78.2794 and 100
infection, dose response Figure 3c (nucleocapsid) ([10]; log [C] (nM) -1.19382): 98.0243 and 101.283 and 99.1734 and 90.3686
infection, dose response Figure 3d (dsRNA) ([10]; log [C] (nM) -1.19382): 100 and 84.9713
EC50 (SARS-CoV-2 VOCs; read-out: EC50 against all VOCs, dsRNA staining): 2.6 to 26.5 nM
EC50 (SARS-CoV-2 VOCs; read-out: EC50 against all VOCs, nucleocapsid staining): 2.1 to 13.9 nM
infection, dose response Figure 3c (nucleocapsid) (SARS-CoV-2 P.1 (Gamma); log [C] (nM) 0.20412): 100 and 81.7088 and 65.1564
infection, dose response Figure 3d (dsRNA) (SARS-CoV-2 P.1 (Gamma); log [C] (nM) 0.20412): 75.4607 and 65.7035 and 100 and 82.6067
infection, dose response Figure 3d (dsRNA) (SARS-CoV-2 P.1 (Gamma); log [C] (nM) 3): 8.633
infection, dose response Figure 3c (nucleocapsid) (SARS-CoV-2 P.1 (Gamma); log [C] (nM) -0.49485): 100 and 84.3433
infection, dose response Figure 3d (dsRNA) (SARS-CoV-2 P.1 (Gamma); log [C] (nM) -0.49485): 100 and 92.9624 and 97.3601
infection, dose response Figure 3c (nucleocapsid) (SARS-CoV-2 P.1 (Gamma); log [C] (nM) -1.19382): 91.5649 and 100 and 99.1769
infection, dose response Figure 3d (dsRNA) (SARS-CoV-2 P.1 (Gamma); log [C] (nM) -1.19382): 98.3176 and 96.7175 and 100 and 97.435
Alveolar cells score ([11]; IHC sections): 0 and 1 ((1) <10% affected)
Interstitial infiltrates in lung score ([11]; IHC sections): 1 ((1) <10% affected) and 2 ((2) 10–25% affected)
Perivascular infiltrate in lung score ([11]; IHC sections): 1 ((1) <10% affected) and 2 ((2) 10–25% affected) and 0 and 3 ((3) 26–50% affected)
Type II pneumocyte hyperplasia score ([11]; IHC sections): 0 and 2 ((2) 10–25% affected) and 1 ((1) <10% affected)
Total Score (lung pathology) ([11]; sum of scores): 2 and 6 and 3 and 1 and 7
inhibition at 0.1 µM (SARS-CoV-2 (VIDO) [12]; Severe acute respiratory syndrome coronavirus 2, read-out: inhibition of SARS-CoV-2 infection in colonoids): > 99%
inhibition of SARS-CoV-2 infection in colonoids (SARS-CoV-2 (VIDO) [12]): complete inhibition
